“And” between values parts separate entries of the source, which are not always exact repeats. Equal entries are not always repeated. Where two headings read alike, the source gives them in different places.
What was measured:
Assay in all cases: cell-based
[1] = molecular target: CfEcR-DEF mutant A110E (Choristoneura fumiferana, UniProt O77255, A393E)
Outline: (§1)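 Mouse NIH3T3 cells were treated with ligand in DMSO, then transfected with GAL4 luciferase reporter (0.16 μg/well) plus mutant CfEcR-DEF receptor constructs (0.04 μg each/well). Cells were kept at 37° C in 5% FBS and lysed 40 hours after ligand addition for dual-luciferase measurement. Fold induction = ligand RLU ÷ DMSO RLU.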

[2] = molecular target: CfEcR-DEF mutant F48L (Choristoneura fumiferana, UniProt O77255, F331L)
Sequence of CfEcR-DEF mutant F48L (P28702 299-449): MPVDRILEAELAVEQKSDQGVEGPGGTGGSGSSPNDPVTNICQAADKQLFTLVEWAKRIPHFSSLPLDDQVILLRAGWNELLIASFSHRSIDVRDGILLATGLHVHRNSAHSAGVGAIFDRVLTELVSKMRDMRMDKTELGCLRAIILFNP
Sequence of CfEcR-DEF mutant F48L (O77255 entry or part of it F331L): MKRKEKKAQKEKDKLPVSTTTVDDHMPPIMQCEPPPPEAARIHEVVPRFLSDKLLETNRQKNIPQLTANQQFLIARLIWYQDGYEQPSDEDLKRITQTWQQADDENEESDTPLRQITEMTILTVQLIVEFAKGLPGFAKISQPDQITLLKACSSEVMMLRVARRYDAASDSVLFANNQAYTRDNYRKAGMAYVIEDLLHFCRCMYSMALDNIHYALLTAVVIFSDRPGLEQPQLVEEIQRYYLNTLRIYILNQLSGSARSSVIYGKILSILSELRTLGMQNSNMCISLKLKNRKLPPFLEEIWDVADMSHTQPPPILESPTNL
Outline: as §1

[3] = molecular target: CfEcR-DEF mutant I51L (Choristoneura fumiferana, UniProt O77255, I334L)
Outline: as §1

[4] = molecular target: CfEcR-DEF mutant L132V (Choristoneura fumiferana, UniProt O77255, L415V)
Outline: as §1

[5] = molecular target: CfEcR-DEF mutant L234M (Choristoneura fumiferana, UniProt O77255, L517M)
Sequence of CfEcR-DEF mutant L234M (P28702 299-449): as the sequence (P28702 299-449) above
Sequence of CfEcR-DEF mutant L234M (O77255 entry or part of it L517M): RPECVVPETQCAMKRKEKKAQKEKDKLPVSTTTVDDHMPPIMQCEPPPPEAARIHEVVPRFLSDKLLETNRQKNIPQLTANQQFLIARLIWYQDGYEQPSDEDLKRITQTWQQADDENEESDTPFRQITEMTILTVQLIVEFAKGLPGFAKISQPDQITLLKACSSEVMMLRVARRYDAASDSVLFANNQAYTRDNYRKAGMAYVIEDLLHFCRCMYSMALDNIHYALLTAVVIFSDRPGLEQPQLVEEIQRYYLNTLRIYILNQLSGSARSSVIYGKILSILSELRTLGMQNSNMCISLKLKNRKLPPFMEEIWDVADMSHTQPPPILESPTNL
Outline: as §1

[6] = molecular target: CfEcR-DEF mutant M125C (Choristoneura fumiferana, UniProt O77255, M408C)
Outline: as §1

[7] = molecular target: CfEcR-DEF mutant M125E (Choristoneura fumiferana, UniProt O77255, M408E)
Outline: as §1

[8] = molecular target: CfEcR-DEF mutant M125L (Choristoneura fumiferana, UniProt O77255, M408L)
Sequence of CfEcR-DEF mutant M125L (P28702 299-449): as the sequence (P28702 299-449) above
Sequence of CfEcR-DEF mutant M125L (O77255 entry or part of it M408L): as the sequence (O77255 entry or part of it F331L) above, with L113F, M190L counted along it
Outline: as §1

[9] = molecular target: CfEcR-DEF mutant M54W (Choristoneura fumiferana, UniProt O77255, M337W)
Outline: as §1

[10] = molecular target: CfEcR-DEF mutant M92E (Choristoneura fumiferana, UniProt O77255, M375E)
Sequence of CfEcR-DEF mutant M92E (P28702 299-449): as the sequence (P28702 299-449) above
Sequence of CfEcR-DEF mutant M92E (O77255 entry or part of it M375E): as the sequence (O77255 entry or part of it L517M) above, with M169E, M311L counted along it
Outline: as §1

[11] = molecular target: CfEcR-DEF mutant M92L (Choristoneura fumiferana, UniProt O77255, M375L)
Outline: as §1

[12] = molecular target: CfEcR-DEF mutant N119F/V96T (Choristoneura fumiferana, UniProt O77255, N402F/V379T)
Outline: as §1

[13] = molecular target: CfEcR-DEF mutant R95H (Choristoneura fumiferana, UniProt O77255, R378H)
Sequence of CfEcR-DEF mutant R95H (P28702 299-449): as the sequence (P28702 299-449) above
Sequence of CfEcR-DEF mutant R95H (O77255 entry or part of it R378H): as the sequence (O77255 entry or part of it F331L) above, with L113F, R160H counted along it
Outline: as §1

[14] = molecular target: CfEcR-DEF mutant R95M (Choristoneura fumiferana, UniProt O77255, R378M)
Outline: as §1

[15] = molecular target: CfEcR-DEF mutant T52E (Choristoneura fumiferana, UniProt O77255, T335E)
Outline: as §1

[16] = molecular target: CfEcR-DEF mutant V107I/Y127E/A110P (Choristoneura fumiferana, UniProt O77255, A393P/V390I/Y410E)
Sequence of CfEcR-DEF mutant V107I/Y127E/A110P (P28702 299-449, stated change not applied): as the sequence (P28702 299-449) above
Sequence of CfEcR-DEF mutant V107I/Y127E/A110P (O77255 entry or part of it V390I/A393P/Y410E): as the sequence (O77255 entry or part of it F331L) above, with L113F, V172I, A175P, Y192E counted along it
Outline: as §1

[17] = molecular target: CfEcR-DEF mutant V128F/A110P (Choristoneura fumiferana, UniProt O77255, A393P/V411F)
Outline: as §1

[18] = molecular target: CfEcR-DEF mutant V96W (Choristoneura fumiferana, UniProt O77255, V379W)
Outline: as §1

[19] = molecular target: CfEcR-DEF mutant W238P (Choristoneura fumiferana, UniProt O77255, W521P)
Sequence of CfEcR-DEF mutant W238P (P28702 299-449): as the sequence (P28702 299-449) above
Sequence of CfEcR-DEF mutant W238P (O77255 entry or part of it W521P): as the sequence (O77255 entry or part of it F331L) above, with L113F, W303P counted along it
Outline: as §1

[20] = molecular target: CfEcR-DEF mutant W238Y (Choristoneura fumiferana, UniProt O77255, W521Y)
Sequence of CfEcR-DEF mutant W238Y (P28702 299-449): as the sequence (P28702 299-449) above
Sequence of CfEcR-DEF mutant W238Y (O77255 entry or part of it W521Y): as the sequence (O77255 entry or part of it F331L) above, with L113F, W303Y counted along it
Outline: as §1

[21] = molecular target: CfEcR-DEF mutant Y120W (Choristoneura fumiferana, UniProt O77255, Y403W)
Outline: as §1

[22] = NIH3T3, 40 h, read-out: Rel Max FI
[23] = NIH3T3, mouse, 40 h, read-out: GS-E ligand max FI (relative to DMSO)

Sequence of CfEcR-DEF mutant A110E (P28702 299-449, stated change not applied): as the sequence (P28702 299-449) above
Sequence of CfEcR-DEF mutant A110E (O77255 entry or part of it A393E): as the sequence (O77255 entry or part of it L517M) above, with A187E, M311L counted along it

CCc1c(OC)cccc1C(=O)NN(C(=O)c1cc(C)cc(C)c1)C(C)(C)C [RG-102240, N-(2-ethyl-3-methoxybenzoyl)-N′-(3,5-dimethylbenzoyl)-N′-tert-butylhydrazine]
EC50 [1]: 0.59 µM
Emax [1, 22]: 100%
maximal fold induction [1, 23]: 4930
Concentration (mM) at max FI ([1]; mutant A110E, GS-E ligand): 10.00 mM
EC50 [2]: 0.46 µM
Emax [2, 22]: 100%
maximal fold induction [2, 23]: 2600
Concentration (mM) at max FI ([2]; mutant F48L, GS-E ligand): 0.0333 mM
EC50 [3]: 3.2 µM
Emax [3, 22]: 100%
maximal fold induction [3, 23]: 2480
Concentration (mM) at max FI ([3]; mutant I51L, GS-E ligand): 33.30 mM
EC50 [4]: 2.32 µM
Emax [4, 22]: 100%
maximal fold induction [4, 23]: 2130
Concentration (mM) at max FI ([4]; mutant L132V, GS-E ligand): 0.01 mM
EC50 [5]: 1.43 µM
Emax [5, 22]: 100%
maximal fold induction [5, 23]: 4580
Concentration (mM) at max FI ([5]; mutant L234M, GS-E ligand): 33.30 mM
EC50 ([6]; EC50, mutant M125C): ~8 µM and > 33 µM
Emax [6, 22]: 100%
maximal fold induction [6, 23]: 9
Concentration (mM) at max FI ([6]; mutant M125C, GS-E ligand): 33.3 mM
EC50 [7]: ~2 µM
Emax [7, 22]: 100%
maximal fold induction [7, 23]: 1200
Concentration at max FI ([7]; mutant M125E, GS-E ligand): 33.3 mM
EC50 [8]: ~10 µM
Emax [8, 22]: 100%
maximal fold induction [8, 23]: 2250
Concentration (mM) at max FI ([8]; mutant M125L, GS-E ligand): 0.0333 mM
EC50 [9]: 1.17 µM
Emax [9, 22]: 100%
maximal fold induction [9, 23]: 1680
Concentration (mM) at max FI ([9]; mutant M54W, GS-E ligand): 0.01 mM
EC50 [10]: ~8 µM
Emax [10, 22]: 100%
maximal fold induction [10, 23]: 141
Concentration (mM) at max FI ([10]; mutant M92E, GS-E ligand): 0.0333 mM
EC50 [11]: ~8 µM
Emax [11, 22]: 100%
maximal fold induction [11, 23]: 1200
Concentration (mM) at max FI ([11]; mutant M92L, GS-E ligand): 33.30 mM
EC50 [12]: ~8 µM
Emax [12, 22]: 100%
maximal fold induction [12, 23]: 1740
Concentration (mM) at max FI ([12]; mutant N119F/V96T, GS-E ligand): 33.3 mM
EC50 [13]: 1.58 µM
Emax [13, 22]: 100%
maximal fold induction [13, 23]: 3410
Concentration (mM) at max FI ([13]; mutant R95H, GS-E ligand): 33.30 mM
EC50 [14]: 2.76 µM
Emax [14, 22]: 100%
maximal fold induction [14, 23]: 1690
Concentration (mM) at max FI ([14]; mutant R95M, GS-E ligand): 33.30 mM
EC50 [15]: ~7 µM
Emax [15, 22]: 100%
maximal fold induction [15, 23]: 1540
Concentration (mM) at max FI ([15]; mutant T52E, GS-E ligand): 33.3 mM
EC50 [16]: 0.3 µM
Emax [16, 22]: 100%
maximal fold induction [16, 23]: 2210
Concentration (mM) at max FI ([16]; mutant V107I/Y127E/A110P, GS-E ligand): 10 mM
EC50 [17]: ~8 µM
Emax [17, 22]: 100%
maximal fold induction [17, 23]: 2960
Concentration (mM) at max FI ([17]; mutant V128F/A110P, GS-E ligand): 33.30 mM
EC50 [18]: ~1 µM
Emax [18, 22]: 100%
maximal fold induction [18, 23]: 615
Concentration (mM) at max FI ([18]; mutant V96W, GS-E ligand): 33.3 mM
EC50 [19]: ~0.4 µM
Emax [19, 22]: 100%
maximal fold induction [19, 23]: 4810
Concentration (mM) at max FI ([19]; mutant W238P, GS-E ligand): 10 mM
EC50 [20]: ~13 µM
Emax [20, 22]: 100%
maximal fold induction [20, 23]: 11
Concentration (mM) at max FI ([20]; mutant W238Y, GS-E ligand): 0.0333 mM
EC50 [21]: 4.21 µM
Emax [21, 22]: 100%
maximal fold induction [21, 23]: 1890

CC(C)(O)CC[C@@H](O)[C@](C)(O)[C@H]1CC[C@@]2(O)C3=CC(=O)[C@@H]4C[C@@H](O)[C@@H](O)C[C@]4(C)[C@H]3CC[C@]12C [20E, 20-hydroxyecdysone]
EC50 ([1]; mutant A110E, read-out: EC50): > 33 µM
Rel Max FI ([1]; mutant A110E, relative to max fold induction of GS-E ligand): 0
EC50 ([2]; mutant F48L, read-out: EC50): > 33 µM
Rel Max FI ([2]; mutant F48L, relative to max fold induction of GS-E ligand): 0
Rel Max FI ([3]; mutant I51L): 0
EC50 ([3]; mutant I51L, read-out: EC50): > 33 µM
EC50 ([4]; mutant L132V, read-out: EC50): > 33 µM
Rel Max FI ([4]; mutant L132V, relative to max fold induction of GS-E ligand): 0
Rel Max FI ([5]; mutant L234M): 0
EC50 ([5]; mutant L234M, read-out: EC50): > 33 µM
Rel Max FI ([6]; mutant M125C): 0.22
Rel Max FI ([7]; mutant M125E): 0
EC50 ([7]; mutant M125E, read-out: EC50): > 33 µM
Rel Max FI ([8]; mutant M125L): 0
EC50 ([8]; mutant M125L, read-out: EC50): > 33 µM
Rel Max FI ([9]; mutant M54W): 0
EC50 ([9]; mutant M54W, read-out: EC50): > 33 µM
Rel Max FI ([10]; mutant M92E): 0
EC50 ([10]; mutant M92E, read-out: EC50): > 33 µM
Rel Max FI ([11]; mutant M92L): 0
EC50 ([11]; mutant M92L, read-out: EC50): > 33 µM
EC50 ([12]; mutant N119F/V96T, read-out: EC50): ~8 µM
Rel Max FI ([12]; mutant N119F/V96T, relative to max fold induction of GS-E ligand): 0.46
Rel Max FI ([13]; mutant R95H): 0
EC50 ([13]; mutant R95H, read-out: EC50): > 33 µM
Rel Max FI ([14]; mutant R95M): 0
EC50 ([14]; mutant R95M, read-out: EC50): > 33 µM
Rel Max FI ([15]; mutant T52E): 0
EC50 ([15]; mutant T52E, read-out: EC50): > 33 µM
EC50 ([16]; mutant V107I/Y127E/A110P, read-out: EC50): > 33 µM
Rel Max FI ([16]; mutant V107I/Y127E/A110P, relative to max fold induction of GS-E ligand): 0.00
Rel Max FI ([17]; mutant V128F/A110P): 0
EC50 ([17]; mutant V128F/A110P, read-out: EC50): > 33 µM
Rel Max FI ([17]; mutant V128F/A110P, relative to max fold induction of GS-E ligand): 0.00
Rel Max FI ([18]; mutant V96W): 0
EC50 ([18]; mutant V96W, read-out: EC50): > 33 µM
EC50 ([19]; mutant W238P, read-out: EC50): > 33 µM
Rel Max FI ([19]; mutant W238P, relative to max fold induction of GS-E ligand): 0
Rel Max FI ([20]; mutant W238Y): 0.18
EC50 ([20]; mutant W238Y, read-out: EC50): > 33 µM
Rel Max FI ([21]; mutant Y120W): 0
EC50 ([21]; mutant Y120W, read-out: EC50): > 33 µM
